Experiment [1] has as its target T1, HiBit-KRAS^G12C (Homo sapiens, UniProt P01116, G12C). The experiment can be described thus: HiBit degradation assay in SW1573 HiBit-KRas^G12C cells. It counts as cell-based. The arrangement: expressed in transfected cells; host or cells: SW1573 (clone E6), modified pcDNA3.1 vector, TK promoter. Conditions: 24 hours. In short, it runs like this:
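HiBit-KRAS G12C degradation was measured after a 24 h compound exposure (titrated 10 μM–20 nM) in engineered SW1573 cells. Lytic HiBit luminescence, expressed relative to DMSO controls, yielded DC50 and Dmax from 4-parameter fits. Concentrations causing ≥50% loss in alamar blue viability were omitted as cytotoxic.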
A general note: HiBiT is a short tag that completes a luciferase, so light tracks the accessible tagged protein.

The target in experiment [2] is T1, HiBit-KRAS^G12C. The experiment can be described thus: HiBit degradation assay in MiaPaCa-2 HiBit-KRas^G12C cells. Conditions: 24 hours; for Dmax: MIA PaCa-2, MiaPaCa-2 HiBit-KRas^G12C cells, maximum degradation, read-out: KRas^G12C-HiBiT (MiaPaCa; 0.5% DMSO) DMax; for DC50: MiaPaCa-2 HiBit-KRas^G12C cells. In kind it is cell-based. Summed up:
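DC50 and Dmax come from 4-parameter fits of DMSO-normalized HiBit luminescence after 24 hours' exposure at 37° C to 10 μM–20 nM compound in 0.1% or 0.5% DMSO. Cells: MiaPaCa-2 carrying one endogenously HiBit-tagged KRAS^G12C allele; concentrations causing ≥50% […] viability loss (alamar blue) excluded.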

Where [3] appears, read: SW1573, SW1573 HiBit-KRas^G12C, 0.5% DMSO, read-out: KRas^G12C-HiBiT (SW1573; 0.5% DMSO) Dmax**.
Setting [4] is: read-out: KRas^G12C-HiBiT (SW1573; 0.5% DMSO) IC50***, SW1573 HiBit-KRas^G12C, 0.5% DMSO.
The mark [5] stands for this setting: read-out: KRas^G12C-HiBiT (MiaPaCa; 0.5% DMSO) IC50, 0.5% DMSO.

T1 sequence (P01116 1-186 isoform P01116-2 G12C limits assumed): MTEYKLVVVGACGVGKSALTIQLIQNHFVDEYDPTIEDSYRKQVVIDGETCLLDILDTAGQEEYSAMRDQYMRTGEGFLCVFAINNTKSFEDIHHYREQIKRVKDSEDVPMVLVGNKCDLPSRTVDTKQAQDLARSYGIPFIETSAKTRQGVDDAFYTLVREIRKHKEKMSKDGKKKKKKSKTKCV

With `C=CC(=O)N1CCN(c2nc(OCCN3CCC(F)(COCC(=O)N[C@H](C(=O)N4C[C@H](O)C[C@H]4C(=O)N[C@@H](C)c4ccc(-c5scnc5C)cc4)C(C)(C)C)CC3)nc3c(F)c(-c4cc(O)cc5ccccc45)c(Cl)cc23)C[C@@H]1CC#N` [Compound 150, (2S,4R)-1-[(2S)-2-[2-({1-[2-({6-chloro-4-[(3S)-3-(cyanomethyl)-4-(prop-2-enoyl)piperazin-1-yl]-8-fluoro-7-(3-hydroxynaphthalen-1-yl)quinazolin-2-yl}oxy)ethyl]-4-fluoropiperidin-4-yl}methoxy)acctamido]-3,3-dimethylbutanoyl]-4-hydroxy-N-[(1S)-1-[4-(4-methyl-1,3-thiazol-5-yl)phenyl]ethyl]pyrrolidine-2-carboxamide], the Dmax at HiBit-KRAS^G12C [1] (setting [3]) and on HiBit-KRAS^G12C [2] (0.5% DMSO) was more than 70% each time. Besides, the figures for the DC50 on HiBit-KRAS^G12C [1] (setting [4]) and at HiBit-KRAS^G12C [2] (setting [5]) were 100 to 1000 nM and more than 1000 nM, respectively.

`C=C(F)C(=O)N1CCN(c2nc(OCCN3CCC(COc4cc([C@H](C(=O)N5C[C@H](O)C[C@H]5C(=O)N[C@@H](C)c5ccc(-c6scnc6C)cc5)C(C)C)on4)CC3)nc3c(F)c(-c4cc(O)cc5ccccc45)c(Cl)cc23)C[C@@H]1CC#N` (atropisomer, axis not shown) [Compound 167, (2S,4R)-1-[(2R)-2-[3-({1-[2-({6-chloro-4-[(3S)-3-(cyanomethyl)-4-(2-fluoroprop-2-enoyl)piperazin-1-yl]-8-fluoro-7-(3-hydroxynaphthalen-1-yl)quinazolin-2-yl}oxy)ethyl]piperidin-4-yl}methoxy)-1,2-oxazol-5-yl]-3-methylbutanoyl]-4-hydroxy-N-[(1S)-1-[4-(4-methyl-1,3-thiazol-5-yl)phenyl]ethyl]pyrrolidine-2-carboxamide]: the “KRas^G12C-HiBiT (SW1573; 0.5% DMSO) Dmax**” value on HiBit-KRAS^G12C [1] (SW1573 HiBit-KRas^G12C, 0.5% DMSO) is recorded as “A (A ≥ 70)”. In addition, the DC50 on HiBit-KRAS^G12C [1] (setting [4]) and on HiBit-KRAS^G12C [2] (setting [5]) was less than 100 nM in each case. Moreover, at HiBit-KRAS^G12C [2] (0.5% DMSO), the Dmax was more than 70%.

For `C=CC(=O)N1CCN(c2nc(OCCN3CCC(COc4cc([C@H](C(=O)N5C[C@H](O)C[C@H]5C(=O)N[C@@H](C)c5ccc(C#N)cc5)C(C)C)on4)CC3)nc3c(F)c(-c4cc(O)cc5ccccc45)c(Cl)cc23)C[C@@H]1CC#N` [Compound 160, (2S,4R)-1-[(2R)-2-[3-({1-[2-({6-chloro-4-[(3S)-3-(cyanomethyl)-4-(prop-2-enoyl)piperazin-1-yl]-8-fluoro-7-(3-hydroxynaphthalen-1-yl)quinazolin-2-yl}oxy)ethyl]piperidin-4-yl}methoxy)-1,2-oxazol-5-yl]-3-methylbutanoyl]-N-[(1S)-1-(4-cyanophenyl)ethyl]-4-hydroxypyrrolidine-2-carboxamide], the DC50 at HiBit-KRAS^G12C [1] (setting [4]) is more than 1000 nM; at HiBit-KRAS^G12C [2] (setting [5]), 100 to 1000 nM. In addition, on HiBit-KRAS^G12C [2] (0.5% DMSO), the Dmax is less than 35%.

Consider `C=C(F)C(=O)N1CCN(c2nc(OCCN3CCC(COc4cc([C@H](C(=O)N5C[C@H](O)C[C@H]5C(=O)N[C@@H](C)c5ccc(-c6ccnn6C)cc5)C(C)C)on4)CC3)nc3c(F)c(-c4cc(O)cc5ccccc45)c(Cl)cc23)C[C@@H]1CC#N` (atropisomer, axis not shown) [Compound 141, (2S,4R)-1-[(2R)-2-[3-({1-[2-({6-chloro-4-[(3S)-3-(cyanomethyl)-4-(2-fluoroprop-2-enoyl)piperazin-1-yl]-8-fluoro-7-(3-hydroxynaphthalen-1-yl)quinazolin-2-yl}oxy)ethyl]-piperidin-4-yl}methoxy)-1,2-oxazol-5-yl]-3-methylbutanoyl]-4-hydroxy-N-[(1S)-1-[4-(1-methyl-1H-pyrazol-5-yl)phenyl]ethyl]pyrrolidine-2-carboxamide], for which the Dmax at HiBit-KRAS^G12C [1] (setting [3]) and at HiBit-KRAS^G12C [2] (0.5% DMSO) was more than 70% throughout. The DC50 at HiBit-KRAS^G12C [1] (setting [4]) was less than 100 nM; on HiBit-KRAS^G12C [2] (setting [5]), 100 to 1000 nM.

Turning to `C=CC(=O)N1CCN(c2nc(O[C@H](C)CN3CCN(CC4CN(CC(=O)N[C@H](C(=O)N5C[C@H](O)C[C@H]5C(=O)N[C@@H](C)c5ccc(-c6scnc6C)cc5)C(C)(C)C)C4)CC3)nc3c(F)c(-c4cc(O)cc5ccccc45)c(Cl)cc23)CC1` [Compound 28, (2S,4R)-1-[(2S)-2-{2-[3-({4-[(2R)-2-{[6-chloro-8-fluoro-7-(3-hydroxynaphthalen-1-yl)-4-[4-(prop-2-enoyl)piperazin-1-yl]quinazolin-2-yl]oxy}propyl]piperazin-1-yl}methyl)azetidin-1-yl]acetamido}-3,3-dimethylbutanoyl]-4-hydroxy-N-[(1S)-1-[4-(4-methyl-1,3-thiazol-5-yl)phenyl]ethyl]pyrrolidine-2-carboxamide], at HiBit-KRAS^G12C [1] (SW1573, read-out: KRas^G12C-HiBit (SW1573; 0.1% DMSO) Dmax**, SW1573 HiBit-KRas^G12C, 0.1% DMSO), the Dmax is less than 35%. Also, the DC50 at HiBit-KRAS^G12C [1] (SW1573 HiBit-KRas^G12C, 0.1% DMSO, read-out: KRas^G12C-HIBit (SW1573; 0.1% DMSO) DC50*) is 100 to 1000 nM; on HiBit-KRAS^G12C [2] (read-out: KRas^G12C-HiBiT (MiaPaCa; 0.1% DMSO) IC50, 0.1% DMSO) it was more than 1000 nM.

As to `C=CC(=O)N1CCN(c2nc(OCCN3CCC(CN(C)c4cc([C@H](C(=O)N5C[C@H](O)C[C@H]5C(=O)N[C@@H](C)c5ccc(-c6scnc6C)cc5)C(C)C)on4)CC3)nc3c(F)c(-c4cc(O)cc5ccccc45)c(Cl)cc23)C[C@@H]1CC#N` [Compound 143, (2S,4R)-1-[(2R)-2-{3-[({1-[2-({6-chloro-4-[(3S)-3-(cyanomethyl)-4-(prop-2-enoyl)piperazin-1-yl]-8-fluoro-7-(3-hydroxynaphthalen-1-yl)quinazolin-2-yl}oxy)ethyl]piperidin-4-yl}methyl)(methyl)amino]-1,2-oxazol-5-yl}-3-methylbutanoyl]-4-hydroxy-N-[(1S)-1-[4-(4-methyl-1,3-thiazol-5-yl)phenyl]ethyl]pyrrolidine-2-carboxamide], the Dmax on HiBit-KRAS^G12C [1] (setting [3]) and at HiBit-KRAS^G12C [2] (0.5% DMSO) was more than 70% each time. Besides, the DC50 on HiBit-KRAS^G12C [1] (setting [4]) and on HiBit-KRAS^G12C [2] (setting [5]) was 100 to 1000 nM in each case.

For the compound `C=CC(=O)N1CCN(c2nc(OCCN3CCC(CN(C)c4cc([C@@H](C(=O)N5C[C@H](O)C[C@H]5C(=O)N[C@@H](C)c5ccc(-c6scnc6C)cc5)C(C)C)on4)CC3)nc3c(F)c(-c4cc(O)cc5ccccc45)c(Cl)cc23)C[C@@H]1CC#N` [Compound 144, (2S,4R)-1-[(2S)-2-{3-[({1-[2-({6-chloro-4-[(3S)-3-(cyanomethyl)-4-(prop-2-enoyl)piperazin-1-yl]-8-fluoro-7-(3-hydroxynaphthalen-1-yl)quinazolin-2-yl}oxy)ethyl]piperidin-4-yl}methyl)(methyl)amino]-1,2-oxazol-5-yl}-3-methylbutanoyl]-4-hydroxy-N-[(1S)-1-[4-(4-methyl-1,3-thiazol-5-yl)phenyl]ethyl]pyrrolidine-2-carboxamide], the Dmax at HiBit-KRAS^G12C [1] (setting [3]) was less than 35%. In addition, the DC50 is 100 to 1000 nM on HiBit-KRAS^G12C [1] (setting [4]) and more than 1000 nM at HiBit-KRAS^G12C [2] (setting [5]).

`C=C(F)C(=O)N1CCN(c2nc(OCCN3CCC4(CC3)CN(c3cc([C@@H](C(=O)N5C[C@H](O)C[C@H]5C(=O)N[C@@H](C)c5ccc(-c6scnc6C)cc5)C(C)C)on3)C4)nc3c(F)c(-c4cc(O)cc5ccccc45)c(Cl)cc23)C[C@@H]1CC#N` (atropisomer, axis not shown) [Compound 113, (2S,4R)-1-[(2S)-2-(3-{7-[2-({6-chloro-4-[(3S)-3-(cyanomethyl)-4-(2-fluoroprop-2-enoyl)piperazin-1-yl]-8-fluoro-7-(3-hydroxynaphthalen-1-yl)quinazolin-2-yl}oxy)ethyl]-2,7-diazaspiro[3.5]nonan-2-yl}-1,2-oxazol-5-yl)-3-methylbutanoyl]-4-hydroxy-N-[(1S)-1-[4-(4-methyl-1,3-thiazol-5-yl)phenyl]ethyl]pyrrolidine-2-carboxamide]: the DC50 on HiBit-KRAS^G12C [1] (setting [4]) and at HiBit-KRAS^G12C [2] (setting [5]) was more than 1000 nM each time.

For `C=CC(=O)N1CCN(c2nc(OCCN3CCC(COCC(=O)N[C@H](C(=O)N4C[C@H](O)C[C@H]4C(=O)N[C@@H](C)c4ccc(-c5scnc5C)cc4)C(C)(C)C)CC3)nc3c(F)c(-c4cc(O)cc(C)c4C)c(Cl)cc23)C[C@@H]1CC#N` [Compound 102, (2S,4R)-1-[(2S)-2-[2-({1-[2-({6-chloro-4-[(3S)-3-(cyanomethyl)-4-(prop-2-enoyl)piperazin-1-yl]-8-fluoro-7-(5-hydroxy-2,3-dimethylphenyl)quinazolin-2-yl}oxy)ethyl]piperidin-4-yl}methoxy)acetamido]-3,3-dimethylbutanoyl]-4-hydroxy-N-[(1S)-1-[4-(4-methyl-1,3-thiazol-5-yl)phenyl]ethyl]pyrrolidine-2-carboxamide], the Dmax at HiBit-KRAS^G12C [1] (setting [3]) and on HiBit-KRAS^G12C [2] (0.5% DMSO) was more than 70% throughout. The DC50 at HiBit-KRAS^G12C [1] (setting [4]) and on HiBit-KRAS^G12C [2] (setting [5]) was 100 to 1000 nM in each case.

The values above are taken from patent US20220370416A1, “COMPOUNDS AND METHODS FOR TARGETED DEGRADATION OF KRAS” (Arvinas Operations, Inc., priority 2020, published 2022).
